The record followed here is US9938269B2, “Inhibitor compounds of phosphodiesterase type 10A” (ABBVIE INC., priority 2011, dated 2018).

Where a name gives a salt, the structure may show the parent alone.

One data set has as its target T1, PDE10A (human) (Homo sapiens, UniProt Q9Y233).
T1 construct: purchased BPS Bioscience
Description: Measurement of PDE activity (HTRF cAMP kit), human PDE10A. Format: biochemical. The settings on record: PDE enzymatic reaction, substrate 20 nM for PDE10, 60 minutes at 29 C. Summed up: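 Recombinant human PDE10A (10–250 pM range across PDEs) with 20 nM cAMP substrate in 20 mM Tris-HCl pH 7.5, 10 mM MgCl2, 0.1% BSA, compound pre-mixed with enzyme. Ran 60 min at 29 °C. Remaining cAMP read by HTRF, converted to % of uninhibited activity, and IC50 fitted.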
(TR-FRET usually uses a lanthanide donor and a delayed reading to cut background.)

Data set [1] is described as follows: Determination of the microsomal half-life, rat liver microsomes. The settings on record: rat, liver microsomes, pH 7.4. Background: Liver microsomes are vesicles of endoplasmic reticulum, rich in cytochrome P450 enzymes.
Description: The test substances were incubated in a concentration of 0.5 μM as follows:
0.5 μM test substance are preincubated together with liver microsomes from different species (from rat, human or other species) (0.25 mg of microsomal protein/10 in 0.05 M potassium phosphate buffer of pH 7.4 in microtiter plates at 37° C. for 5 min. The reaction is started by adding NADPH (1 mg/mL). After 0, 5, 10, 15, 20 and 30 min., 50 μl aliquots are removed, and the reaction is immediately stopped and cooled with the same volume of acetonitrile. The samples are frozen until analyzed. The remaining concentration of undegraded test substance is determined by MSMS. The half-life (T½) is determined from the gradient of the signal of test substance/unit time plot, it being possible to calculate the half-life of the test substance, assuming first order kinetics, from the decrease in the concentration of the compound with time. The microsomal clearance (mCl) is calculated from mCl=ln 2/T½/(content of microsomal protein in mg/ml)×1000 [ml/min/mg]
Data set [2] is described as follows: Determination of the microsomal half-life, human liver microsomes. The settings on record: for microsomal CLint at 0.5 μM: human, liver microsomes, pH 7.4.

T1 sequence (Q9Y233 whole entry): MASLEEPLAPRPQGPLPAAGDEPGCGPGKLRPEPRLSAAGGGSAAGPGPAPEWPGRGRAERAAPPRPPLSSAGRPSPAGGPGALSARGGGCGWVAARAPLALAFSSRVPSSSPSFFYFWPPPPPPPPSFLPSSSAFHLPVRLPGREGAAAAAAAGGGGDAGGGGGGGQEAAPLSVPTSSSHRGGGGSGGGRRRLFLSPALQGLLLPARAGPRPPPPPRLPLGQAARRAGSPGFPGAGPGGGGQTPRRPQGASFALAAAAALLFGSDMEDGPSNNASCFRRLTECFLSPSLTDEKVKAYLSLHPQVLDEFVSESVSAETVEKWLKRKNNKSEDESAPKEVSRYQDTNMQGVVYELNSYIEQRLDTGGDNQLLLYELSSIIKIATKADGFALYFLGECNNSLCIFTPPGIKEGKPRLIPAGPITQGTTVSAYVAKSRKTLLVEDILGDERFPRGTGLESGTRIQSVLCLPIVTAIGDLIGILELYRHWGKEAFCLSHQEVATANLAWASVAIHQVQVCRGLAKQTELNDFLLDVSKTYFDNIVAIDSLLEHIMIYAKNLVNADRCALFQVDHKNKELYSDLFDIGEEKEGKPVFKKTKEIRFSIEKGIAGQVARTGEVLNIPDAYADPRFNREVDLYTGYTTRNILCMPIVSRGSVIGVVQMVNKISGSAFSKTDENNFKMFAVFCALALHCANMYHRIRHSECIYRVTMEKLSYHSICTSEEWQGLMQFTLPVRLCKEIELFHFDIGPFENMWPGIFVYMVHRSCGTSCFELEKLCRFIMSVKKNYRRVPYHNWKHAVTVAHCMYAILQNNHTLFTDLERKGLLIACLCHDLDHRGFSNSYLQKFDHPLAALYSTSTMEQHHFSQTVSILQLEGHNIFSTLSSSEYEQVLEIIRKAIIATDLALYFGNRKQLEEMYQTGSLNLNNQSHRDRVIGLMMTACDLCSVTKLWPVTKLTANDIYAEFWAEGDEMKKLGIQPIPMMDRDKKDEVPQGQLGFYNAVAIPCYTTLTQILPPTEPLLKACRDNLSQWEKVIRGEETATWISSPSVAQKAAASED

Turning to `O=C1c2c(-c3cncnc3)ccnc2CN1CCc1ccc2ccccc2n1` [Example 166, 4-Pyrimidin-5-yl-6-(2-quinolin-2-yl-ethyl)-6,7-dihydro-pyrrolo[3,4-b]pyridin-5-one], the IC50 at PDE10A (human) was less than 0.1 µM. Also, the intrinsic metabolic clearance (microsomal CLint) at 0.5 μM in data set [1] and in data set [2] was less than 100 µL/min/mg each time.
In turn, `CCc1ccc(CCN2Cc3nccc(-c4ccncc4)c3C2=O)nc1` [compound 501, 6-[2-(5-Ethyl-2-pyridyl)ethyl]-4-(4-pyridyl)-7H-pyrrolo[3,4-b]pyridin-5-one trifluoroacetate] returned a concentration for half-maximal inhibition (IC50) on PDE10A (human) of 0.1 to 0.2 µM. The intrinsic metabolic clearance (microsomal CLint) at 0.5 μM in data set [1] is 100 to 220 µL/min/mg; in data set [2], less than 100 µL/min/mg.
`COc1ccc(-c2ccc(OC)c3c2CN(CCc2cn4ccccc4n2)C3=O)cc1` [compound 457, 2-(2-Imidazo[1,2-a]pyridin-2-yl-ethyl)-7-methoxy-4-(4-methoxy-phenyl)-2,3-dihydro-isoindol-1-one trifluoroacetate] had an IC50 against PDE10A (human) of less than 0.1 µM. In addition, the intrinsic metabolic clearance (microsomal CLint) at 0.5 μM in data set [1] and in data set [2] was 100 to 220 µL/min/mg throughout.
Consider `Cc1ncccc1-c1cccc2c1C(=O)N(CCc1ccc3ccccc3n1)C2` [Example 86, 7-(2-Methyl-pyridin-3-yl)-2-(2-quinolin-2-yl-ethyl)-2,3-dihydro-isoindol-1-one], for which the IC50 against PDE10A (human) was less than 0.1 µM. For the same molecule, the microsomal CLint at 0.5 μM was greater than 220 µL/min/mg in data set [1] and 100 to 220 µL/min/mg in data set [2].
The matching figures for `CN(C)CCCn1c(CCN2Cc3cccc(-c4ccncc4)c3C2=O)nc2ccccc21` [Example 294, 2-{2-[1-(3-Dimethylamino-propyl)-1H-benzoimidazol-2-yl]-ethyl}-7-pyridin-4-yl-2,3-dihydro-isoindol-1-one trifluoroacetate]: 0.2 to 0.5 µM, less than 100 µL/min/mg and 100 to 220 µL/min/mg.
In the same order, the values of `Cn1nccc1-c1cccc2c1C(=O)N(CCc1nc3ccccc3[nH]1)C2` [Example 313, 2-[2-(1H-Benzoimidazol-2-yl)-ethyl]-7-(2-methyl-2H-pyrazol-3-yl)-2,3-dihydro-isoindol-1-one trifluoroacetate] are 0.2 to 0.5 µM, less than 100 µL/min/mg and less than 100 µL/min/mg.
In the same order, the values of `[2H]c1nc2c(c(N3CCOCC3)c1[2H])C(=O)N(CC([2H])([2H])c1nc3c([2H])c([2H])c([2H])c([2H])c3c([2H])c1[2H])C2([2H])[2H]` [compound 513, 2,3,7,7-Tetradeuterio-6-[2,2-dideuterio-2-(3,4,5,6,7,8-hexadeuterio-2-quinolyl)ethyl]-4-morpholino-pyrrolo[3,4-b]pyridin-5-one] are less than 0.1 µM, greater than 220 µL/min/mg and 100 to 220 µL/min/mg.
As for `COc1ccc(-c2cccnc2)c2c1CN(CCc1cn3ccccc3n1)C2=O` [Example 218, 2-(2-Imidazo[1,2-a]pyridin-2-yl-ethyl)-4-methoxy-7-pyridin-3-yl-2,3-dihydro-isoindol-1-one trifluoroacetate], on PDE10A (human), the IC50 is less than 0.1 µM. The microsomal CLint at 0.5 μM in data set [1] and in data set [2] was less than 100 µL/min/mg each time.
In turn, `O=C1c2c(C3CCOCC3)ccnc2CN1CCc1ccc2ccccc2n1` [Example 297, 6-(2-Quinolin-2-yl-ethyl)-4-(tetrahydro-pyran-4-yl)-6,7-dihydro-pyrrolo[3,4-b]pyridin-5-one] showed a half-inhibitory concentration (IC50) on PDE10A (human) of less than 0.1 µM. Besides, the microsomal CLint at 0.5 μM in data set [1] and in data set [2] was 100 to 220 µL/min/mg throughout.
With `O=C1c2c(cccc2-c2cncnc2)CN1CCc1nc2ccccc2[nH]1` [Example 312, 2-[2-(1H-Benzoimidazol-2-yl)-ethyl]-7-pyrimidin-5-yl-2,3-dihydro-isoindol-1-one trifluoroacetate], the IC50 against PDE10A (human) is less than 0.1 µM. Besides, the microsomal CLint at 0.5 μM in data set [1] and in data set [2] was less than 100 µL/min/mg each time.
At PDE10A (human), `Cc1ncc(-c2ccnc3c2C(=O)N(CCc2ccc4ccccc4n2)C3)s1` [Example 326, 4-(2-Methyl-thiazol-5-yl)-6-(2-quinolin-2-yl-ethyl)-6,7-dihydro-pyrrolo[3,4-b]pyridin-5-one] came in with an IC50 of less than 0.1 µM. Further, the intrinsic metabolic clearance (microsomal CLint) at 0.5 μM in data set [1] and in data set [2] was 100 to 220 µL/min/mg in each case.
Consider `O=C1c2c(cccc2-c2ccncc2)CN1CCc1nc2ccccn2n1` [Example 230, 7-Pyridin-4-yl-2-(2-[1,2,4]triazolo[1,5-a]pyridin-2-yl-ethyl)-2,3-dihydro-isoindol-1-one], for which, at PDE10A (human), the concentration for half-maximal inhibition (IC50) lay in the range of 0.2 to 0.5 µM. Further, the microsomal CLint at 0.5 μM in data set [1] and in data set [2] was less than 100 µL/min/mg each time.
On PDE10A (human), `COc1cccc(CCN2Cc3nccc(N4CCOCC4)c3C2=O)n1` [compound 483, 6-[2-(6-Methoxy-2-pyridyl)ethyl]-4-morpholino-7H-pyrrolo[3,4-b]pyridin-5-one] gave an IC50 of less than 0.1 µM. Also, the intrinsic metabolic clearance (microsomal CLint) at 0.5 μM in data set [1] and in data set [2] was less than 100 µL/min/mg in each case.
Regarding `O=C1c2c(N3CCC(CF)C3)ccnc2CN1CCc1nc2ccccc2s1` (stereo not drawn) [compound 387, 6-[2-(1,3-Benzothiazol-2-yl)ethyl]-4-[3-(fluoromethyl)pyrrolidin-1-yl]-7H-pyrrolo[3,4-b]pyridin-5-one], at PDE10A (human), the IC50 was less than 0.1 µM. For the same molecule, the microsomal CLint at 0.5 μM is greater than 220 µL/min/mg in data set [1] and 100 to 220 µL/min/mg in data set [2].
In the same order, the values of `Cn1nccc1-c1ccnc2c1C(=O)N(CCc1nc3ccccc3s1)C2` [compound 432, 6-[2-(1,3-Benzothiazol-2-yl)ethyl]-4-(2-methylpyrazol-3-yl)-7H-pyrrolo[3,4-b]pyridin-5-one trifluoroacetate] are 0.1 to 0.2 µM, less than 100 µL/min/mg and less than 100 µL/min/mg.
Take `O=C1c2c(cccc2N2CCOCC2)CN1CCc1ccc2ccccc2n1` [Example 99, 7-Morpholin-4-yl-2-(2-quinolin-2-yl-ethyl)-2,3-dihydro-isoindol-1-one]: the IC50 at PDE10A (human) is less than 0.1 µM. The microsomal CLint at 0.5 μM in data set [1] is less than 100 µL/min/mg; in data set [2], 100 to 220 µL/min/mg.
Molecule `O=C(O)C(F)(F)F.O=C1c2c(-c3ccnc(F)c3)ccnc2CN1CCc1nc2ccccc2s1` [compound 421, 6-[2-(1,3-Benzothiazol-2-yl)ethyl]-4-(2-fluoro-4-pyridyl)-7H-pyrrolo[3,4-b]pyridin-5-one trifluoroacetate] registered an IC50 against PDE10A (human) of less than 0.1 µM. Further, the microsomal CLint at 0.5 μM in data set [1] is less than 100 µL/min/mg. Further, the “Human mCl (mikrosomal clearance)” value in data set [2] (human liver microsomes, 0.5 μM test substance, 0.25 mg microsomal protein, pH 7.4, 37° C., NADPH) is given as “◯”.
On PDE10A (human), `O=C1c2c(cccc2N2CCNCC2)CN1CCc1ccc2ccccc2n1` [Example 102, 7-piperazin-1-yl-2-(2-quinolin-2-yl-ethyl)-2,3-dihydro-isoindol-1-one] yielded an IC50 of 0.2 to 0.5 µM. Moreover, the intrinsic metabolic clearance (microsomal CLint) at 0.5 μM in data set [1] was 100 to 220 µL/min/mg; in data set [2], less than 100 µL/min/mg.
In the same order, the values of `CN(C)CCOc1ccc(-c2ccncc2)c2c1CN(CCc1ccc3ccccc3n1)C2=O` [compound 529, 4-(2-Dimethylamino-ethoxy)-7-pyridin-4-yl-2-(2-quinolin-2-yl-ethyl)-2,3-dihydro-isoindol-1-one] are less than 0.1 µM, less than 100 µL/min/mg and less than 100 µL/min/mg.
As to `CN(C)C1CCN(c2ccnc3c2C(=O)N(CCc2ccc4ccccc4n2)C3)CC1` [Example 363, 4-(4-Dimethylamino-piperidin-1-yl)-6-(2-quinolin-2-yl-ethyl)-6,7-dihydro-pyrrolo[3,4-b]pyridin-5-one hydrochloride], at PDE10A (human), the IC50 lay within 0.2 to 0.5 µM. Further, the microsomal CLint at 0.5 μM in data set [1] and in data set [2] was less than 100 µL/min/mg throughout.
Consider `O=C1c2c(cccc2-c2ccc3nn[nH]c3c2)CN1CCc1ccc2ccccc2n1` [Example 10, 7-(3H-Benzotriazol-5-yl)-2-(2-quinolin-2-yl-ethyl)-2,3-dihydro-isoindol-1-one trifluoroacetate], for which the half-maximal inhibitory concentration (IC50) on PDE10A (human) is less than 0.1 µM. In addition, the intrinsic metabolic clearance (microsomal CLint) at 0.5 μM is less than 100 µL/min/mg in data set [1] and 100 to 220 µL/min/mg in data set [2].
The matching figures for `O=C1c2cccc(-c3ccncc3)c2CN1CCc1cn2ccccc2n1` [Example 316, 2-(2-Imidazo[1,2-a]pyridin-2-yl-ethyl)-4-pyridin-4-yl-2,3-dihydro-isoindol-1-one]: less than 0.1 µM, 100 to 220 µL/min/mg and less than 100 µL/min/mg.
In the same order, the values of `Cc1ccc2c(c1)nc(CCN1Cc3nccc(-c4cncnc4)c3C1=O)n2C` [compound 535, 6-[2-(1,5-Dimethyl-1H-benzoimidazol-2-yl)-ethyl]-4-pyrimidin-5-yl-6,7-dihydro-pyrrolo[3,4-b]pyridin-5-one] are less than 0.1 µM, less than 100 µL/min/mg and less than 100 µL/min/mg.
The matching figures for `O=C1c2c(-c3ccncc3)ccnc2CN1CCc1cnc2ccccc2n1` [compound 465, 4-(4-Pyridyl)-6-(2-quinoxalin-2-ylethyl)-7H-pyrrolo[3,4-b]pyridin-5-one]: less than 0.1 µM, less than 100 µL/min/mg and less than 100 µL/min/mg.
For the molecule `Cc1cnc(CCN2Cc3nccc(-c4ccncc4)c3C2=O)c(C)c1` [compound 473, 6-[2-(3,5-Dimethyl-2-pyridyl)ethyl]-4-(4-pyridyl)-7H-pyrrolo[3,4-b]pyridin-5-one], at PDE10A (human), the IC50 fell in the range of 0.1 to 0.2 µM. Further, the microsomal CLint at 0.5 μM in data set [1] and in data set [2] was 100 to 220 µL/min/mg in each case.
As for `O=C1c2cccc(-c3ccncc3)c2CN1CCc1nc2ccccc2s1` [compound 431, 2-[2-(1,3-Benzothiazol-2-yl)ethyl]-4-(4-pyridyl)isoindolin-1-one], at PDE10A (human), the half-maximal inhibitory concentration (IC50) was in the range of 0.1 to 0.2 µM. Moreover, the intrinsic clearance (microsomal CLint) at 0.5 μM was greater than 220 µL/min/mg in data set [1] and less than 100 µL/min/mg in data set [2].

As usually defined, the IC50 is the concentration needed to halve the response being measured. As usually defined, the microsomal CLint is the rate of metabolic loss divided by the concentration. A high value points to faster metabolism.
